Results published in ChEMBL document CHEMBL4196049, “β,γ-diamino acids as building blocks for new analogues of Gramicidin S: Synthesis and biological activity” (Eur J Med Chem, 2018).
≈ marks a conversion by molar mass, not a printed value. Non-standard residues stand in square brackets, D forms with d. Residues, ends and D or L forms follow the SMILES beside them. Orn = NCCC[C@H](N)C(=O)O

Legend:
[1] = Hemolytic activity in human erythrocytes at 50 ug/ml after 30 mins relative to control; format: ADME, cell-based, Erythrocyte; conditions: read-out: Activity
[2] = Hemolytic activity in human erythrocytes at 100 ug/ml after 30 mins relative to control; format: ADME, cell-based, Erythrocyte; conditions: read-out: Activity
Enterococcus faecalis [3] = test: Antibacterial activity against Enterococcus faecalis CIP 103214 after 48 hrs by two-fold serial dilution method; format: functional; conditions: CIP 103214, 48 h
Escherichia coli = test: Antibacterial activity against Escherichia coli CIP 53.126 ATCC 8739 after 48 hrs by two-fold serial dilution method; format: functional; conditions: ATCC 8739 = CIP 53.126, 48 h
Enterococcus faecalis [4] = test: Antibacterial activity against Enterococcus faecalis CIP 103015 after 48 hrs by two-fold serial dilution method; format: functional; conditions: CIP 103015, 48 h
Staphylococcus aureus = test: Antibacterial activity against Staphylococcus aureus subsp. aureus CIP 4.83 ATCC 6538 after 48 hrs by two-fold serial dilution method; format: functional; conditions: CIP 4.83 ATCC 6538, 48 h
Bacillus subtilis = test: Antibacterial activity against Bacillus subtilis subsp. subtilis CIP 52.65 after 48 hrs by two-fold serial dilution method; format: functional; conditions: CIP 52.65, 48 h
Enterococcus faecium = test: Antibacterial activity against Enterococcus faecium CIP 103014 after 48 hrs by two-fold serial dilution method; format: functional; conditions: CIP 103014, 48 h
Bacillus cereus = test: Antibacterial activity against Bacillus cereus CIP 66.24 after 48 hrs by two-fold serial dilution method; format: functional; conditions: CIP 66.24, 48 h
Streptococcus salivarius = test: Antibacterial activity against Streptococcus salivarius CIP 102503 after 48 hrs by two-fold serial dilution method; format: functional; conditions: CIP 102503, 48 h
Pseudomonas aeruginosa = test: Antibacterial activity against Pseudomonas aeruginosa CIP 82.118 ATCC 9027 after 48 hrs by two-fold serial dilution method; format: functional; conditions: CIP 82.118 ATCC 9027, 48 h

Structure (SMILES)	hemolysis at 0.5 h, 50 ug/ml [1] [%]	hemolysis at 0.5 h, 100 ug/ml [2] [%]	MIC (Enterococcus faecalis [3]) [µg/mL]	MIC (Escherichia coli) [µg/mL]	MIC (Enterococcus faecalis [4]) [µg/mL]	MIC (Staphylococcus aureus) [µg/mL]	MIC (Bacillus subtilis) [µg/mL]	MIC (Enterococcus faecium) [µg/mL]	MIC (Bacillus cereus) [µg/mL]	MIC (Streptococcus salivarius) [µg/mL]	MIC (Pseudomonas aeruginosa) [µg/mL]
CC(C)C[C@@H]1NC(=O)[C@H](CCCN)NC(=O)[C@H](C(C)C)NC(=O)[C@@H]2CCCN2C(=O)[C@@H](Cc2ccccc2)NC(=O)[C@H](CC(C)C)NC(=O)[C@H](CCCN)NC(=O)[C@H](C(C)C)NC(=O)[C@@H]2CCCN2C(=O)[C@@H](Cc2ccccc2)NC1=O (cyclo(L[dF]PV[Orn]L[dF]PV[Orn]))	74	83	–	–	–	–	–	–	–	–	–
CC(C)C[C@@H]1NC(=O)[C@H](CCCN)NC(=O)[C@H](C(C)C)NC(=O)[C@@H]2CCCN2C(=O)[C@@H](Cc2ccccc2)NC(=O)[C@H](CC(C)C)NC(=O)[C@H](CCCN)NC(=O)[C@H](C(C)C)NC(=O)[C@@H]2CCCN2C(=O)[C@@H](Cc2ccccc2)NC1=O (cyclo(V[Orn]L[dF]PV[Orn]L[dF]P))	–	–	3.12 (≈ 2.74 µM)	12.5 (≈ 11 µM)	3.12 (≈ 2.74 µM)	3.12 (≈ 2.74 µM)	3.12 (≈ 2.74 µM)	3.12 (≈ 2.74 µM)	6.25 (≈ 5.48 µM)	3.12 (≈ 2.74 µM)	≥ 100
